Data set [1] has as its system Molt-4 (human T cell leukemia). Put plainly: Cytotoxicity assay of compounds 11 and 12 (XTT, % cytotoxicity). How it is done:
(§1) The respective cell type at 1×10^4 cells/well was incubated for 24 hours in 96-well plates and cell viability was determined using the 2,3-bis(2-methoxy-4-nitro-5-sulphophenyl)-2H-tetrazolium-5-carboxanilide (XTT) kit (Biological Industries, Israel). […] Optical density is directly proportional to the number of living cells in culture. Cytotoxicity (%) was calculated in the following way: [(absorbance of control cells−absorbance of drug-treated cells)/absorbance of control cells]×100. Results shown are averages of 3 repeats ±SE.
In general terms: Tetrazolium assays rely on reduction of a dye to a coloured formazan, in cell work by metabolically active cells.

In the next data set the test system is OVCAR-3. Description: Cytotoxicity IC50 experiments, XTT kit, 24 h incubation. The conditions noted are these: for IC50: 24 h incubation, XTT, read-out: IC-50 values after 24 h incubation, OVCAR-3; for viability at 20 µM: OVCAR-3, 20 μM, 24 h, read-out: cell viability. Format: cell-based. How it is done: (§2) Aloe-emodin was purchased from Molekula.
(§3) The cells were incubated for 24 h.

A further data set deals with NAR cells. The description is as above. The conditions noted are these: for IC50: DOX resistant, P-gp overexpressing; for viability at 100 µM: read-out: cell viability. How it is done:
as §2, §3
Finally, AEGs 13-16 were evaluated against DOX resistant ovarian cancer NAR cells in which resistance is conferred by overexpression of P-gp efflux pumps^[36]

Another data set has as its system MCF-7. Described as above. The settings on record: Homo sapiens, MCF7, 24 h, read-out: cell viability. On the procedure: as §2, §3
For data set [2] the following is noted: cited from earlier work.
In a further data set the test system is MOLT-4. Description: Cytotoxicity IC50 experiments, XTT kit, 24 h incubation. The conditions noted are these: for IC50: read-out: IC-50 values after 24 h incubation, MOLT-4, 24 h incubation, XTT.
In another data set the test system is DOX resistant NAR cells. Put plainly: Fluorescent confocal microscopy study of cell permeability. The class given is cell-based. The settings on record: 5 μM, two hour incubation. On the procedure: Cells (1×10^5/well) were plated into 24-well microtiter plates and incubated over coverslips for 24 hours. The cells were then added with one of the AEGs or DOX or AE at a total sample concentration of 5 μM. After 2 hours of incubation, the cells were washed three times, using PBS×1 (0.5 ml per well), and incubated with paraformaldehyde (3.7% in PBS 0.5 ml per well). After 15 min at ambient temperature, the cells were washed twice using PBS×1 0.5 ml per well. Cells were shaken at 50 rpm for 5 min after each wash. The plasma membrane of the fixated cells was stained by incubation of the samples with 300 μl of DiIC18(5)-DS ([…]) at 4° C. After 20 min, the cells were washed twice using PBS×1 0.5 ml per well. Cells were shaken at 50 rpm for 5 min after each wash. Finally, the samples were placed on a microscope slide and fixed using 10 μl of mounting. The slides were observed using an Andor Revolution Imaging System equipped with a Yokogawa CSU-X1 Spinning Disk Unit and an iXon 897 back-illuminated EMCCD camera, and mounted on a custom made Olympus IX-Upright microscope at Ex/Em=488/525 nm for DOX and AE glycoside I and Ex/Em=640/685 nm for DiIC18 (5)-DS.
A possible explanation for the potency of the synthetic AEGs against. DOX resistant cells was provided using fluorescent confocal microscopy (FIG. 11). […]

For data set [3], the system named is supercoiled plasmid PBR322. Description: Supercoiled plasmid DNA unwinding gel experiment (DNA intercalation). The class given is binding. On the procedure:
Eppendorf tubes containing 3 μL supercoiled plasmid PBR322 (0.167 μg/ml), 14 μL tris-HCl-di-natrium-EDTA (TE X1) and 5 μL, AE, or one of the AEGs 1-4 or doxorubicin, at different concentrations were incubated for 15 min at 37° C. The samples were then added with 2 μl of loading buffer, and loaded on a 1% agarose gel in tris-HCl-boric-acid-di-natrium-EDTA (TBE X1). Samples were on the gel run for 15 min at 50 V and an additional 225 min at 70V. The gels were then immersed in a 0.5 mg/ml solution of ethidium bromide shaken for 20 min., washed with DDW for […]. DNA was visualized by UV illumination.
The DNA intercalation property of AEGs 13-16 was studied by applying the robust supercoiled plasmid DNA unwinding gel experiments protocol.^[23,37,38] Briefly, samples containing one of the AEGs 13-16, DOX or AE were pre-incubated with PBR322DNA plasmid, loaded on a 1% agarose gel, run for 4 hours at 70 volts and stained with ethidium bromide. […] At 200 μM.

The subject of the next data set is MCF-7 cells. Put plainly: Light microscopy study of treated cells. The class given is cell-based. The settings on record: MCF-7, 20 μM, 24 hours, x400. On the procedure: FIG. 9: Light microscopy (x400) pictures of MCF-7 cells: Cell cultures were incubated for 24 hours. (a) Untreated control cells (b) AE 20 μM (c), Dox 20 μM, (d) AEG 13 20 μM.
Cells micrographs were obtained using a light microscope (Olympus IX50-S8F2 inverted phase microscope) at x400 magnification.

For the next data set, the system named is B16 (murine melanoma). Put plainly: Cytotoxicity assay of compounds 11 and 12 (XTT, % cytotoxicity). How it is done: as §1
For data set [4], the system named is MCA 105 (murine fibrosarcoma). The data set is described as above. How it is done: as §1
Data set [5] deals with HCT 116 (human colon adenocarcinoma). The description is as above. On the procedure: as §1
The mark [6] stands for this setting: 24 h, read-out: IC-50 values after 24 h incubation, NAR, 24 h incubation, XTT.
The mark [7] stands for this setting: read-out: IC-50 values after 24 h incubation, NAR, 24 h incubation, XTT.
The mark [8] stands for this setting: B16, 24 hours of incubation, E-1 at the highest concentration.
The mark [9] stands for this setting: MCA 105, 24 hours of incubation, E-1 at the highest concentration.
[10] abbreviates: HCT116, 24 hours of incubation, E-1 at the highest concentration.
Where [11] appears, read: Molt-4, 24 hours of incubation, E-1 at the highest concentration.

Molecules are shown by their SMILES. Where two headings read alike, the source gives them in different places.

On to `O=C1c2cccc(O)c2C(=O)c2c(O)cc(CO)cc21` [AE, Aloe-emodin], for which, in data set [1] (human), the “toxicities (cytotoxicity)” value is “about 20%”. Further, the IC50 with OVCAR-3 (Homo sapiens, OVCAR-3, 24 h) was above 20 µM; with NAR cells (setting [6]), above 100 µM; in the data set on MOLT-4, above 20 µM. In addition, the viability (commonly a read-out of living cells in per cent, often relative to untreated cells) at 100 µM in the data set on NAR cells (24 h) is 78%. Further, in the data set on MCF-7, the viability at 20 µM was found to be 77%. Moreover, in data set [2], the “solubility in water and in physiological solutions” value is “hardly soluble”. The cell viability (in general, a per cent measure of how many cells are alive, often set against a control) in the data set with MOLT-4 (MOLT-4, 20 μM, 24 h) is recorded as 100%.

Turning to `CC1O[C@@H](OCc2cc(O)c3c(c2)C(=O)c2cccc(O)c2C3=O)CC(N)[C@H]1O` (some centres unmarked) [AEG 13], the “cellular accumulation (cell permeability)” value in the data set on DOX resistant NAR cells is recorded as “intracellular accumulation”. Moreover, the IC50 was determined as 5.2 ± 0.1 µM in the data set on OVCAR-3, 8.6 ± 0.6 µM in the data set with NAR cells (setting [7]) and 5.8 ± 1.3 µM in the data set with MOLT-4. For the same compound, the DNA shift effect entry in data set [3] (200 μM) is listed as “most significant effect”. The “improvement in cytotoxic potency compared to DOX and AE” value in the data set with NAR cells was “at least two orders of magnitude”. For the same compound, the “cell numbers and cell morphology by light microscopy” value with MCF-7 cells is “a very small number of highly damaged cells was observed”.

Consider `CC1O[C@H](OCc2cc(O)c3c(c2)C(=O)c2cccc(O)c2C3=O)CC(N)[C@H]1O` (some centres unmarked) [AEG 14], for which the IC50 in the data set on OVCAR-3 was 6.4 ± 0.2 µM; with NAR cells (setting [7]) it was above 100 µM; in the data set on MOLT-4 it was 7.6 ± 1.6 µM. Also, the DNA shift effect entry in data set [3] (200 μM) is on record as “weak effect”. The viability at 100 µM in the data set on NAR cells (24 h) worked out at 65%.

As for `CC1O[C@@H](OCc2cc(O)c3c(c2)C(=O)c2cccc(O)c2C3=O)CC(N)[C@H]1O` (some centres unmarked) [AEG 15], the IC50 in the data set with OVCAR-3 was determined as 15.7 ± 0.8 µM; in the data set on NAR cells (setting [7]) it was 18 ± 1.3 µM; in the data set with MOLT-4, 5.4 ± 0.4 µM.

Take `CC1O[C@H](OCc2cc(O)c3c(c2)C(=O)c2cccc(O)c2C3=O)CC(N)[C@H]1O` (some centres unmarked) [AEG 16]: the IC50 in the data set on OVCAR-3 is above 20 µM; with NAR cells (setting [7]) it was 28.3 ± 2.3 µM; with MOLT-4, 12.8 ± 0.7 µM. For the same compound, the viability at 20 µM in the data set on OVCAR-3 (Homo sapiens) was found to be 60%; in the data set on MCF-7, 83%.

As for `COc1cccc2c1C(=O)c1c(O)c3c(c(O)c1C2=O)C[C@@](O)(C(=O)CO)C[C@@H]3O[C@H]1C[C@H](N)[C@H](O)[C@H](C)O1` [DOX, doxorubicin, reference compound], the “cellular accumulation (cell permeability)” value with DOX resistant NAR cells is reported as “accumulated mainly in the plasma membrane”. Further, the “cytotoxicity, general outcome (FIG. 4B)” value with B16 (murine melanoma) is reported as “much more effective than the other compounds”. Besides, the “cytotoxicity, general outcome (FIG. 4D)” value in data set [4] is listed as “much more effective than the other compounds”. Besides, the “cytotoxicity, general outcome (FIG. 4C)” value in data set [5] is on record as “much more effective than the other compounds”. The “cytotoxicity, general outcome (FIG. 4A)” value in data set [1] is recorded as “much more effective than the other compounds”. The “toxicities (cytotoxicity)” value in data set [1] (human) was “about 20%”. For the same compound, the IC50 with OVCAR-3 (Homo sapiens, OVCAR-3, 24 h) is above 20 µM; in the data set on NAR cells (setting [6]), above 100 µM; in the data set on MOLT-4, 0.2 ± 0.07 µM. Also, the results for the viability at 20 µM in the data set on OVCAR-3 (Homo sapiens) and in the data set on MCF-7 were 61% and 83%, respectively. The DNA shift effect result in [3] (20 μM) was “still significant”; in data set [3] (200 μM), “intense effect”. The cell viability entry in the data set on NAR cells (NAR, 100 μM, 24 h) was “not affected at all”. For the same compound, in the data set with MCF-7 cells, the “cell numbers and cell morphology by light microscopy” value is “became more spherical in shape and smaller in size”.

As for `NC1CC(OCc2cc(O)c3c(c2)C(=O)c2cccc(O)c2C3=O)OCC1O` [E-1, Aloe-Emodin connected through C-7 to alpha 2-deoxy-3-deoxy-3-amino-L-xylopyranose], in the data set with B16 (murine melanoma) (setting [8]), the “cytotoxicity, general outcome (FIG. 4B)” value was “much more effective than Alo”. Moreover, the “cytotoxicity, general outcome (FIG. 4D)” value in data set [4] (setting [9]) was “much more effective than Alo”. The “cytotoxicity, general outcome (FIG. 4C)” value in data set [5] (setting [10]) is recorded as “much more effective than Alo”. For the same compound, in [1] (Molt-4, 100 μM, 4 hours of incubation), the cytotoxicity entry is on record as “about 90%”. In addition, the “cytotoxicity, general outcome (FIG. 4A)” value in data set [1] (setting [11]) is on record as “much more effective than Alo”.

Turning to `NC1CC(OCc2cc(O)c3c(c2)C(=O)c2cccc(O)c2C3=O)OCC1O` [E-2, Aloe-Emodin connected through C-7 to beta 2-deoxy-3-deoxy-3-amino-L-xylopyranose], the “cytotoxicity, general outcome (FIG. 4B)” value in the data set with B16 (murine melanoma) (setting [8]) is “much weaker effect”. The “cytotoxicity, general outcome (FIG. 4D)” value in [4] (setting [9]) was “much weaker effect”. The “cytotoxicity, general outcome (FIG. 4C)” value in data set [5] (setting [10]) is “much weaker effect”. Moreover, the “cytotoxicity, general outcome (FIG. 4A)” value in [1] (setting [11]) is “much weaker effect”. Besides, the “toxicities (cytotoxicity)” value in data set [1] (Molt-4, up to 8 hours of incubation) is “about 20%”.

The values above are taken from US20130045933A1, “ALOE-EMODIN DERIVATIVES AND USE THEREOF FOR THE TREATMENT OF CANCER” (RAMOT AT TEL-AVIV UNIVERSITY LTD., priority 2010, published 2013).
